Experimental findings from BindingDB's records for PubMed 39642691 (University of California San Francisco) are described below.

This test has as its target T1, Pendrin (Homo sapiens, UniProt O43511).
T1 sequence (O43511 whole entry): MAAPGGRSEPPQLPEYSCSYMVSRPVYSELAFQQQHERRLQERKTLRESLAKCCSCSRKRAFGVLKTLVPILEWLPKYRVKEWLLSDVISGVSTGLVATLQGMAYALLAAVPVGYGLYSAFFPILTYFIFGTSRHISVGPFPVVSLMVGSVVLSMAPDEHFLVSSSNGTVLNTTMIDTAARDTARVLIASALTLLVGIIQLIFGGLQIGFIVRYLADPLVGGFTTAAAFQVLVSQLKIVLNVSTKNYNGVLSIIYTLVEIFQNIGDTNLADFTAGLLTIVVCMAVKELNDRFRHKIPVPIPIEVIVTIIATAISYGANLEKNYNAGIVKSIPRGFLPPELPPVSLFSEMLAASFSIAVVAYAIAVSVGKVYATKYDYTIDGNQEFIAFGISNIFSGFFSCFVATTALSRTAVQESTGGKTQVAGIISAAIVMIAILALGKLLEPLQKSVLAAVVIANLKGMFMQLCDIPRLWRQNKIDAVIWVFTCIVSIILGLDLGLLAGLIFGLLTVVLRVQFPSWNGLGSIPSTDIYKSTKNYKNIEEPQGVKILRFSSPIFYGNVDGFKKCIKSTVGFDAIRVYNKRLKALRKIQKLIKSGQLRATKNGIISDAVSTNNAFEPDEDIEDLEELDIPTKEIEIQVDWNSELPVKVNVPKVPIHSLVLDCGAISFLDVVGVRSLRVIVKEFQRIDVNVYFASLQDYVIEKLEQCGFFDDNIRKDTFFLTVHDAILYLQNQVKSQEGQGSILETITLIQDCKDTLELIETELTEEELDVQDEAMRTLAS
The test is described as follows: Inhibition of Pendrin (unknown origin) transfected in rat FRT cells assessed as reduction in Cl-/I- ions exchange by YFP fluorescence quenching assay.

Structures are written as SMILES.

`Cc1oc2ccc(OCc3ccccc3Cl)cc2c1C(=O)O`: the IC50 came to 650 nM.

What is called IC50 is the concentration at which inhibition is half-maximal.
